Test results as given in ChEMBL document CHEMBL1201862, “PubChem BioAssay data set” (2004).
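Protocol summary: plate cells (96-well), add compound at 5 concentrations, incubate 48 h, interpolate endpoints linearly. GI50 = concentration required for 50% inhibition of growth.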 Calls of active or inactive are those of the source. Cut-off read from the data, not from the text of the source: active = GI50 up to about 1.1 µM and inactive = higher.

What was measured:
Assay in all cases: NCI-60 cell line screen, 48 h
[1] = test system: COLO 205
[2] = test system: SN12C
[3] = test system: SF-539
[4] = test system: NCI-H522
[5] = test system: NCI-H226
[6] = test system: SF-268
[7] = test system: LXFL 529
[8] = test system: U-251
[9] = test system: CCRF-CEM
[10] = test system: A549
[11] = test system: HT-29
[12] = test system: EKVX
[13] = test system: SK-OV-3
[14] = test system: SF-295
[15] = test system: UACC-62
[16] = test system: TK-10

Compound	GI50 [1]	GI50 [2]	GI50 [3]	GI50 [4]	GI50 [5]	GI50 [6]	GI50 [7]	GI50 [8]	GI50 [9]	GI50 [10]	GI50 [11]	GI50 [12]	GI50 [13]	GI50 [14]	GI50 [15]	GI50 [16]
COC(=O)NN1C(C)=C(C(=O)OC)C2(CCOC2=O)C1(C)O (configuration not stated)	> 100 µM (inactive)	> 100 µM (inactive)	> 100 µM (inactive)	> 100 µM (inactive)	> 100 µM (inactive)	> 100 µM (inactive)	> 100 µM (inactive)	> 100 µM (inactive)	> 100 µM (inactive)	> 100 µM (inactive)	> 100 µM (inactive)	> 100 µM (inactive)	> 100 µM (inactive)	> 100 µM (inactive)	> 100 µM (inactive)	> 100 µM (inactive)
CC(C)(CN1CCCCC1)C(=O)/C=C/c1ccc(Cl)c(Cl)c1	1.5 µM (inactive)	1.56 µM (inactive)	2.07 µM (inactive)	1.21 µM (inactive)	1.71 µM (inactive)	1.8 µM (inactive)	1.46 µM (inactive)	1.37 µM (inactive)	1.09 µM (active)	1.98 µM (inactive)	1.61 µM (inactive)	1.76 µM (inactive)	2.34 µM (inactive)	2.45 µM (inactive)	1.76 µM (inactive)	1.48 µM (inactive)
CN(C)[C@@H]1C(O)=C(C(N)=O)C(=O)[C@@]2(O)C(O)=C3C(=O)c4c(O)cccc4C[C@H]3C[C@@H]12	1.77 µM (inactive)	3.44 µM (inactive)	2 µM (inactive)	2.13 µM (inactive)	–	1.73 µM (inactive)	1.92 µM (inactive)	2.17 µM (inactive)	2.37 µM (inactive)	2.32 µM (inactive)	1.87 µM (inactive)	–	1.9 µM (inactive)	1.7 µM (inactive)	1.72 µM (inactive)	2.52 µM (inactive)
Cc1cccc(C(C)C)c1N1C(=O)C(=O)C(c2nc3ccccc3o2)C(=O)C1=O	41.8 µM (inactive)	> 100 µM (inactive)	> 100 µM (inactive)	29.5 µM (inactive)	> 100 µM (inactive)	> 100 µM (inactive)	61.1 µM (inactive)	89.3 µM (inactive)	20.2 µM (inactive)	> 100 µM (inactive)	56.2 µM (inactive)	42.7 µM (inactive)	> 100 µM (inactive)	> 100 µM (inactive)	61 µM (inactive)	> 100 µM (inactive)
COc1cc2c(cc1OC)C(=O)Cc1ccc(OC)c(OC)c1CN(C)CC2	> 100 µM (inactive)	> 100 µM (inactive)	> 100 µM (inactive)	> 100 µM (inactive)	> 100 µM (inactive)	> 100 µM (inactive)	> 100 µM (inactive)	> 100 µM (inactive)	> 100 µM (inactive)	> 100 µM (inactive)	> 100 µM (inactive)	> 100 µM (inactive)	> 100 µM (inactive)	–	> 100 µM (inactive)	> 100 µM (inactive)
CCOC(=O)[C@H]1Nc2ccccc2C2c3ccccc3CC21 (some centres not stated)	64.4 µM (inactive)	29.4 µM (inactive)	> 100 µM (inactive)	16.4 µM (inactive)	> 100 µM (inactive)	> 100 µM (inactive)	41.6 µM (inactive)	> 100 µM (inactive)	–	78.3 µM (inactive)	19 µM (inactive)	–	–	49 µM (inactive)	53.3 µM (inactive)	> 100 µM (inactive)
NC(CCCC(N)P(=O)(O)O)P(=O)(O)O (configuration not stated)	> 100 µM (inactive)	> 100 µM (inactive)	> 100 µM (inactive)	> 100 µM (inactive)	> 100 µM (inactive)	–	> 100 µM (inactive)	> 100 µM (inactive)	> 100 µM (inactive)	> 100 µM (inactive)	> 100 µM (inactive)	> 100 µM (inactive)	> 100 µM (inactive)	> 100 µM (inactive)	> 100 µM (inactive)	> 100 µM (inactive)
Cc1nc(C(N)=S)sc1C(=O)CC(=O)C(=O)Nc1ccccc1[N+](=O)[O-]	–	–	> 100 µM (inactive)	> 100 µM (inactive)	–	> 100 µM (inactive)	> 100 µM (inactive)	> 100 µM (inactive)	> 100 µM (inactive)	> 100 µM (inactive)	> 100 µM (inactive)	> 100 µM (inactive)	> 100 µM (inactive)	> 100 µM (inactive)	> 100 µM (inactive)	> 100 µM (inactive)
COc1ccc(C2=NN(c3ccccc3)C[N+](c3ccc(OC)cc3)=N2)cc1	> 10 µM (inactive)	54.1 µM (inactive)	–	15.1 µM (inactive)	15.7 µM (inactive)	35.9 µM (inactive)	17.2 µM (inactive)	20.4 µM (inactive)	23.2 µM (inactive)	48 µM (inactive)	57.3 µM (inactive)	33.8 µM (inactive)	–	59.4 µM (inactive)	–	42.4 µM (inactive)
CC12CCC(=O)N1[C@@H](c1ccccc1)[C@@H](c1ccccc1)O2 (some centres not stated)	> 100 µM (inactive)	> 100 µM (inactive)	> 100 µM (inactive)	> 100 µM (inactive)	> 100 µM (inactive)	> 100 µM (inactive)	> 100 µM (inactive)	–	> 100 µM (inactive)	> 100 µM (inactive)	> 100 µM (inactive)	–	68.9 µM (inactive)	> 100 µM (inactive)	42.5 µM (inactive)	–
O=C(Cc1ccccc1)NN1C(=O)C(Cl)C1c1ccc([N+](=O)[O-])cc1 (configuration not stated)	> 100 µM (inactive)	96.4 µM (inactive)	–	25.1 µM (inactive)	> 100 µM (inactive)	> 100 µM (inactive)	95.9 µM (inactive)	> 100 µM (inactive)	> 10 µM (inactive)	> 100 µM (inactive)	> 100 µM (inactive)	> 100 µM (inactive)	> 100 µM (inactive)	> 100 µM (inactive)	> 100 µM (inactive)	> 100 µM (inactive)
Nc1nnc(N)n1N	> 100 µM (inactive)	–	> 100 µM (inactive)	> 100 µM (inactive)	> 100 µM (inactive)	> 100 µM (inactive)	> 100 µM (inactive)	> 100 µM (inactive)	> 100 µM (inactive)	> 100 µM (inactive)	> 100 µM (inactive)	> 100 µM (inactive)	> 100 µM (inactive)	> 100 µM (inactive)	> 100 µM (inactive)	> 100 µM (inactive)
COc1ccc(/C(=N/NC(N)=O)C2(O)C(=O)Nc3ccc([N+](=O)[O-])cc32)cc1 (configuration not stated)	23 µM (inactive)	> 10 µM (inactive)	15.7 µM (inactive)	21.8 µM (inactive)	45.7 µM (inactive)	18.5 µM (inactive)	18.3 µM (inactive)	> 10 µM (inactive)	11.6 µM (inactive)	55.6 µM (inactive)	19.4 µM (inactive)	> 100 µM (inactive)	> 100 µM (inactive)	–	20 µM (inactive)	–
CCOC(=O)Cn1c(=O)n(C)c(=O)c2[nH]cnc21	> 100 µM (inactive)	> 100 µM (inactive)	> 100 µM (inactive)	> 100 µM (inactive)	–	> 100 µM (inactive)	> 100 µM (inactive)	> 100 µM (inactive)	> 100 µM (inactive)	> 100 µM (inactive)	> 100 µM (inactive)	> 100 µM (inactive)	> 100 µM (inactive)	–	> 100 µM (inactive)	> 100 µM (inactive)
